In article PMC11984924, “Dipeptidic Phosphonates: Potent Inhibitors of Pseudomonas aeruginosa Elastase B Showing Efficacy in a Murine Keratitis Model” (Advanced Science, 2025):

What was measured:
[1] = Tolerability study in male CD1 mice, repeated TID intravenous dosing; type: in vivo; conditions: mouse, 300 and 600 mg/kg/day, 3 days
Description: Table S8: Percent (%) inhibition of the metabolic activity of three human cell lines HepG2 (hepatocellular carcinoma cells), HEK293 (human embryonic kidney 293 cells) and A549 (lung carcinoma epithelial cells). Results are means and SD of at least two independent ex periments.
3.10 Evaluation of Zebrafish embryo toxicity
The experiment was performed according to a procedure described in the literature with minor modifications using zebrafish embryos of the AB wild -type line at 1 day post fertilization (dpf). A detailed protocol has been given in our recent publication.[16]
Starting exposure ar 2 dpf. Ten larvae were tested for each condition. Dpf: days post fertilization.
3.11 Tolerability study in male CD1 mice
This in vivo experiment was carried out at the CRO Selvita (Zagreb, Croatia). The study was performed in an AAALAC I- approved Facility. The standard study plan relating to this study was reviewed by the Ethics Committee (CARE- Zagreb) as required by International Laws/Regulations and Croatian Low on Animal Welfare (“The Animal Protection Act”, Official Gazette, NN 135/06 and NN 37/13) and Animal Welfare Officer. Animals were kept in solid […]
The observations and examinations that were made, comprise clinical signs, body weight, food consumption, macroscopy at termination and organ weights. Mortality was recorded twice a day, i.e. in the morning and at the end of the working day.

LasB = biological target: T1, LasB (Pseudomonas aeruginosa, UniProt Q02RJ6); test: KC/LasB co-incubation study (ELISA); type: biochemical; conditions: 100 µM (R)-30, 100 nM LasB, 10 min
T1 construct: made in house
Description: Figure S15: MS-based quantification of (R)-30 levels in serum and eye homogenate. Concentrations were determined after single treatment ((R)-30 alone) or after combination with Meropenem.
To test whether KC might be a substrate for LasB, an ELISA was used to quantify KC levels after co-incubation with LasB. Briefly, 500 pg/ml of the recombinant murine KC standard (R&D part 840327) was incubated for 10 minutes in PBS supplemented with 1% BSA and 0.1% DMSO (vehicle control), LasB (100 nM), (R)-30 (100 µM), or a combination of both. Detection of KC and absorbance measurements were performed as described above (3.11).
(also on this page, place not known: Serum Eye homogenate 100 1000 concentrations Concentration [ng/mL] Meropenem + (R)-30 (R)-30 , 10 LasB (R)-30)
(1 picture or pasted object on this page, not shown here)

[2] = Stability in minipig liver microsomes; type: in vitro ADME; conditions: Göttingen, read-out: Minipig Liver Microsomes t1/2
Description: (§1) Samples were stored on ice until the end of the incubation and precipitated protein was removed by centrifugation (15 min, 4 °C, 4,000 g). Concentration of the remaining test […]
(§2) compound at the different time points was analyzed by HPLC-MS/MS (TSQ Quantum Access […]
(§3) MAX, Thermo Fisher, Dreieich, Germany) and used to determine half -life (t1/2) and intrinsic […]
(§4) Species profiling was conducted as above using 0.5 mg/mL pooled mouse, rat or minipig liver microsomes (Xenotech, Kansas City, USA) with 2 mM NADPH and 10 mM MgCl2 and testosterone, verapamil and ketoconazole as reference compounds. […]
(§5) Thermo Fisher, Dreieich, Germany) and used to determine half-life (t1/2).
(§6) Table S2: Additional in vitro ADMET data for selected dipeptides. n.d.: not determined.
(§7) Kinetic Liver S9 Clint [µL/mg/min] Plasma t1/2 [min] LogD7.4 […]
(§8) pH 7.4 [µM] Mouse Human Mouse Human

[3] = Stability in rat liver microsomes; type: in vitro ADME; conditions: Wistar, read-out: Rat Liver Microsomes t1/2
Description: as §1, §2, §3, §4, §5, §6, §7, §8

[4] = Plasma stability, Göttingen minipig; type: in vitro ADME; conditions: read-out: Minipig Plasma t1/2
Description: (§9) To determine stability in plasma, the compound (1 µM) was incubated with pooled CD -1 […]
(§10) mouse/human/Wistar rat or Göttingen minipig plasma (Neo Biotech, Nanterre, France).
(§11) Samples were taken by mixing aliquots with 4 volumes of acetonitrile containing internal […]
(§12) standard (125 nM diphenhydramine). The plasma stability of procain, propantheline and diltiazem were determined in parallel to confirm the enzymatic activity. Samples were stored […]
(§13) on ice until the end of the incubation and precipitated protein was removed by centrifugation […]
(§14) (15 min, 4 °C, 4,000 g, two centrifugation steps). Concentration of the remaining test compound at the different time points was analyzed by HPLC-MS/MS (TSQ Quantum Access MAX, […]
as §5, §6, §7, §8

[5] = Plasma stability, Wistar rat; type: in vitro ADME; conditions: read-out: Rat Plasma t1/2
Description: as §9, §10, §11, §12, §13, §14, §5, §6, §7, §8

T1 sequence (Q02RJ6 198-498): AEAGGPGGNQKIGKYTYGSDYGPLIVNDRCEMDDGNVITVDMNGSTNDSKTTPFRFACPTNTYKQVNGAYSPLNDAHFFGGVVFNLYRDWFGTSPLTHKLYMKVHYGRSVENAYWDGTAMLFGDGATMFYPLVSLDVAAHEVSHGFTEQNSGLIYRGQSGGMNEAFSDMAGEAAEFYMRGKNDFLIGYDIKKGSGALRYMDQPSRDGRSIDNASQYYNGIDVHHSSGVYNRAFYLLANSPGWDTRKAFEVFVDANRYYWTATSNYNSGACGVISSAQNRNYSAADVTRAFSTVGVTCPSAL

Row | Structure (SMILES) | mortality, body weight, clinical signs [1] | proteolytic activity of LasB on KC (LasB) | half-life at 1 µM [2] [h] | half-life at 1 µM [3] [h] | half-life at 1 µM [4] [h] | half-life at 1 µM [5] [h]
1 | CC(=O)c1ccc(NC(=O)[C@@H](NC(=O)[C@@H](CC(C)C)P(=O)(O)O)C(C)C)cc1 [(R)‐30] | no treatment–related mortality, nor effects on body weight or clinical signs | effectively blocked |  |  |  | 
2 | CC(=O)c1ccc(NC(=O)[C@@H](NC(=O)C(CC(C)C)P(=O)(O)O)C(C)C)cc1 (stereo partly drawn) [compound 30] |  |  | > 2 | > 2 | > 4 | > 4
